# Values joined by “and” are separate entries in the source; they are usually repeats but may differ in a detail not shown here. Identical values can stand only once.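 These data come from cells grown in 96-well plates and exposed to compound for 48 hours at five concentrations. GI50 is the concentration that inhibits growth by half. Definition used: TGI = concentration required for complete inhibition of growth.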
# Assays:
# Test in all cases: growth of human tumour cells (NCI), 48 h
# OVCAR-4 ovarian = test system: OVCAR-4 ovarian
# SNB-78 CNS = test system: SNB-78 CNS
# MDA-MB-435 = test system: MDA-MB-435
# NCI-H23 lung = test system: NCI-H23 lung
# 786-0 renal = test system: 786-0 renal
# EKVX NSCLC = test system: EKVX NSCLC
# SK-MEL-5 melanoma = test system: SK-MEL-5 melanoma
# DMS 114 small cell lung = test system: DMS 114 small cell lung
# A498 renal = test system: A498 renal
# HCC-2998 colon = test system: HCC-2998 colon
smiles,measurement,setting,value
ClC(Cl)=C1C(=C(Cl)Cl)C(Cl)(Cl)C1(Cl)Cl,TGI,OVCAR-4 ovarian,16 µM
same,TGI,SNB-78 CNS,7.71 µM
same,TGI,MDA-MB-435,14 µM
same,TGI,NCI-H23 lung,3.57 µM
same,TGI,786-0 renal,2.81 µM
same,TGI,EKVX NSCLC,16.6 µM
same,TGI,SK-MEL-5 melanoma,9.98 µM
same,TGI,DMS 114 small cell lung,2.33 µM
same,TGI,A498 renal,26 µM
same,TGI,HCC-2998 colon,13.7 µM
CCNC(=O)/C(=C/c1ccc(OC)cc1)c1cc(OC)c(OC)c(OC)c1,TGI,OVCAR-4 ovarian,> 100 µM
same,TGI,SNB-78 CNS,> 100 µM
same,TGI,MDA-MB-435,> 20.5 µM
same,TGI,NCI-H23 lung,> 85.3 µM
same,TGI,786-0 renal,> 100 µM
same,TGI,EKVX NSCLC,> 100 µM
same,TGI,SK-MEL-5 melanoma,> 53.9 µM
same,TGI,DMS 114 small cell lung,> 57 µM
same,TGI,A498 renal,> 63.8 µM
same,TGI,HCC-2998 colon,> 39.3 µM
CO[C@H]1Nc2c(ccc(C)c2O)C(=O)N2C=C(/C=C/C(N)=O)C[C@@H]12,TGI,OVCAR-4 ovarian,0.686 µM
same,TGI,SNB-78 CNS,18.4 µM
same,TGI,MDA-MB-435,0.0293 µM
same,TGI,NCI-H23 lung,0.354 µM
same,TGI,786-0 renal,2.03 µM
same,TGI,EKVX NSCLC,1.03 µM
same,TGI,SK-MEL-5 melanoma,0.0308 µM
same,TGI,DMS 114 small cell lung,0.044 µM
same,TGI,A498 renal,0.495 µM
same,TGI,HCC-2998 colon,0.132 µM
CN(C)C(=S)SSC(=S)N(C)C,TGI,OVCAR-4 ovarian,20.8 µM and 8.96 µM and 39.1 µM
same,TGI,SNB-78 CNS,> 100 µM
same,GI50,MDA-MB-435,15.6 µM and 8.04 µM and 21.1 µM
same,TGI,MDA-MB-435,38.6 µM and 33.5 µM and > 56.7 µM
same,GI50,NCI-H23 lung,21.5 µM and 4.49 µM and 21 µM
same,TGI,NCI-H23 lung,64.9 µM and 14.3 µM and 43.7 µM
same,GI50,786-0 renal,18.2 µM and 35.2 µM and 17.3 µM
same,TGI,786-0 renal,33.4 µM and > 80.9 µM and 36.5 µM
same,GI50,EKVX NSCLC,22 µM and > 73.4 µM and 18.6 µM
same,TGI,EKVX NSCLC,96.3 µM and > 100 µM and 35.1 µM
same,TGI,SK-MEL-5 melanoma,> 100 µM and 20.8 µM and 29.2 µM
same,TGI,DMS 114 small cell lung,17.4 µM
same,GI50,A498 renal,15.1 µM
same,TGI,A498 renal,> 100 µM
same,GI50,HCC-2998 colon,38.3 µM
same,TGI,HCC-2998 colon,> 100 µM and 38 µM
CC(O)CCCOC(c1ccccc1)(c1ccccc1)c1ccccc1 (stereo unspecified),TGI,OVCAR-4 ovarian,28.1 µM
same,TGI,SNB-78 CNS,29.3 µM
same,TGI,MDA-MB-435,30.4 µM
same,TGI,NCI-H23 lung,27.6 µM
same,TGI,786-0 renal,30.3 µM
same,TGI,EKVX NSCLC,28.1 µM
same,TGI,SK-MEL-5 melanoma,16.6 µM
same,TGI,DMS 114 small cell lung,26.4 µM
same,TGI,A498 renal,34.7 µM
same,TGI,HCC-2998 colon,29.1 µM
